# Measurements taken from PubChem BioAssay AID256 (DTP/NCI, 2004).
# Where “and” joins values, the source holds several entries; their conditions need not be identical. Equal entries are not always repeated. Toxic doses and inconclusive results are not listed.
# System: CD2F1 mice, L1210 leukemia ip, survival T/C
# Experiment: NCI In Vivo Anticancer Drug Screen. Data for tumor model L1210 Leukemia (intraperitoneal) in CD2F1 (CDF1) mice
# Conditions: higher = longer survival
# How it was run: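 In this screen, transplantable tumors were grown in mice given either the compound or its vehicle. Results were expressed as the treated measurement relative to the control measurement.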
# [1] = endpoint: mean survival time, dose: 50.0 mg/kg/injection, schedule: Q01DX009 (ip), vehicle: saline
# [2] = endpoint: mean survival time, dose: 100.0 mg/kg/injection, schedule: Q01DX009 (ip), vehicle: saline
# [3] = endpoint: mean survival time, dose: 100.0 mg/kg/injection, schedule: Q01DX001 (ip), vehicle: saline
# [4] = endpoint: mean survival time, dose: 200.0 mg/kg/injection, schedule: Q01DX001 (ip), vehicle: saline
# [5] = endpoint: mean survival time, dose: 400.0 mg/kg/injection, schedule: Q01DX001 (ip), vehicle: saline
# [6] = endpoint: mean survival time, dose: 200.0 mg/kg/injection, schedule: Q01DX009 (ip), vehicle: saline
# [7] = endpoint: mean survival time, dose: 100.0 mg/kg/injection, schedule: Q04DX003 (ip), vehicle: saline with Tween-80
# [8] = endpoint: mean survival time, dose: 200.0 mg/kg/injection, schedule: Q04DX003 (ip), vehicle: saline with Tween-80
# [9] = endpoint: mean survival time, dose: 400.0 mg/kg/injection, schedule: Q04DX003 (ip), vehicle: saline with Tween-80
# [10] = endpoint: mean survival time, dose: 100.0 mg/kg/injection, schedule: Q01DX009 (ip), vehicle: saline with Tween-80
# [11] = endpoint: mean survival time, dose: 200.0 mg/kg/injection, schedule: Q01DX009 (ip), vehicle: saline with Tween-80
# [12] = endpoint: mean survival time, dose: 100.0 mg/kg/injection, schedule: Q04DX002 (ip), vehicle: saline with Tween-80
smiles,measurement,setting,value
NCCOS(=O)(=O)O,T/C,"endpoint: mean survival time, dose: 25.0 mg/kg/injection, schedule: Q01DX009 (ip), vehicle: saline",102 % of control
same,T/C,[1],98 % of control
same,T/C,[2],96 % of control
c1coc(CNc2ncnc3c2ncn3CCCCCCn2cnc3c(NCc4ccco4)ncnc32)c1,T/C,"endpoint: mean survival time, dose: 1.0 mg/kg/injection, schedule: Q01DX005 (ip), vehicle: other",95 % of control
same,T/C,"endpoint: mean survival time, dose: 2.0 mg/kg/injection, schedule: Q01DX005 (ip), vehicle: other",92 % of control
same,T/C,"endpoint: mean survival time, dose: 4.0 mg/kg/injection, schedule: Q01DX005 (ip), vehicle: other",95 % of control
same,T/C,"endpoint: mean survival time, dose: 16.0 mg/kg/injection, schedule: Q01DX005 (ip), vehicle: other",95 % of control
OCC(O)C1OC(OC2CCCCC2)C(O)C(O)C1O (stereo not drawn),T/C,[3],95 % of control
same,T/C,[4],101 % of control
same,T/C,[5],96 % of control
CCSC(C(O)C(O)C(O)C(O)CO)n1cnc2c(=S)nc[nH]c21 (stereo not drawn),T/C,"endpoint: mean survival time, dose: 25.0 mg/kg/injection, schedule: Q01DX005 (ip), vehicle: water",94 % of control
same,T/C,"endpoint: mean survival time, dose: 50.0 mg/kg/injection, schedule: Q01DX005 (ip), vehicle: water",97 % of control
same,T/C,"endpoint: mean survival time, dose: 100.0 mg/kg/injection, schedule: Q01DX005 (ip), vehicle: water",96 % of control
same,T/C,"endpoint: mean survival time, dose: 177.0 mg/kg/injection, schedule: Q01DX009 (ip), vehicle: saline with Tween-80",107 % of control
same,T/C,"endpoint: mean survival time, dose: 200.0 mg/kg/injection, schedule: Q01DX005 (ip), vehicle: water",96 % of control
same,T/C,"endpoint: mean survival time, dose: 265.0 mg/kg/injection, schedule: Q01DX009 (ip), vehicle: saline with Tween-80",102 % of control
same,T/C,"endpoint: mean survival time, dose: 600.0 mg/kg/injection, schedule: Q01DX009 (ip), vehicle: saline with Tween-80",150 % of control
Cc1ccccc1OCC(=O)O,T/C,[1],104 % of control
same,T/C,[2],101 % of control
same,T/C,[6],93 % of control
O=C(O)CCCCCCCCC#CC#CCCCc1ccccc1,T/C,"endpoint: mean survival time, dose: 100.0 mg/kg/injection, schedule: Q04DX003 (ip), vehicle: Klucel (hydroxypropylcellulose) (HPC)",95 % of control
same,T/C,"endpoint: mean survival time, dose: 200.0 mg/kg/injection, schedule: Q04DX003 (ip), vehicle: Klucel (hydroxypropylcellulose) (HPC)",95 % of control
same,T/C,"endpoint: mean survival time, dose: 400.0 mg/kg/injection, schedule: Q04DX003 (ip), vehicle: Klucel (hydroxypropylcellulose) (HPC)",97 % of control
Cc1cc2c(-c3ccccc3)c(-c3ccccc3)oc(=O)c2cc1C,T/C,[7],95 % of control
same,T/C,[8],90 % of control
same,T/C,[9],92 % of control
CC(=O)c1cc(-c2ccc(Cl)cc2)nc2c(Cl)cc(Cl)cc12,T/C,[3],89 % of control
same,T/C,[4],87 % of control
same,T/C,[5],91 % of control
CC(Cl)CN(CC(C)Cl)c1ccc(S(=O)(=O)Nc2ncccn2)cc1 (stereo not drawn),T/C,"endpoint: mean survival time, dose: 35.0 mg/kg/injection, schedule: Q01DX009 (ip), vehicle: other",114 % of control
NC(=O)SCC(N)C(=O)O (stereo not drawn),T/C,[1],101 % of control
same,T/C,[2],101 % of control
same,T/C,[6],109 % of control
same,T/C,"endpoint: mean survival time, dose: 300.0 mg/kg/injection, schedule: Q01DX009 (ip), vehicle: saline",107 % of control
CC(C)C1=CCC2C(=C1)CCC1C(C)(C(N)=O)CCCC21C (stereo not drawn),T/C,[7],95 % of control
same,T/C,[8],88 % of control
same,T/C,[9],90 % of control
Nc1cc(S(=O)(=O)c2ccc(/C=C/c3ccccc3)c(N)c2)ccc1/C=C/c1ccccc1,T/C,[10],93 % of control
same,T/C,[11],94 % of control and 88 % of control
same,T/C,"endpoint: mean survival time, dose: 400.0 mg/kg/injection, schedule: Q01DX009 (ip), vehicle: saline with Tween-80",91 % of control
CC1CC(C)(C)CC2(C1)OCC(CCl)O2 (stereo not drawn),T/C,"endpoint: mean survival time, dose: 100.0 mg/kg/injection, schedule: Q01DX009 (ip), vehicle: saline sonified",95 % of control
same,T/C,"endpoint: mean survival time, dose: 200.0 mg/kg/injection, schedule: Q01DX009 (ip), vehicle: saline sonified",87 % of control
same,T/C,"endpoint: mean survival time, dose: 400.0 mg/kg/injection, schedule: Q01DX009 (ip), vehicle: saline sonified",106 % of control
O=S(=O)(Nc1cc(N2CCCCC2)c(NS(=O)(=O)c2ccccc2)cc1N1CCCCC1)c1ccccc1,T/C,"endpoint: mean survival time, dose: 100.0 mg/kg/injection, schedule: Q01DX001 (ip), vehicle: Klucel (hydroxypropylcellulose) (HPC)",88 % of control
same,T/C,"endpoint: mean survival time, dose: 200.0 mg/kg/injection, schedule: Q01DX001 (ip), vehicle: Klucel (hydroxypropylcellulose) (HPC)",98 % of control
same,T/C,"endpoint: mean survival time, dose: 400.0 mg/kg/injection, schedule: Q01DX001 (ip), vehicle: Klucel (hydroxypropylcellulose) (HPC)",90 % of control
C[n+]1c(/C=N/NC(N)=S)ccc2ccccc21,T/C,"endpoint: mean survival time, dose: 6.25 mg/kg/injection, schedule: Q01DX009 (ip), vehicle: saline with Tween-80",102 % of control
same,T/C,"endpoint: mean survival time, dose: 12.5 mg/kg/injection, schedule: Q01DX009 (ip), vehicle: saline with Tween-80",106 % of control
same,T/C,"endpoint: mean survival time, dose: 25.0 mg/kg/injection, schedule: Q01DX009 (ip), vehicle: saline with Tween-80",108 % of control
same,T/C,"endpoint: mean survival time, dose: 50.0 mg/kg/injection, schedule: Q01DX009 (ip), vehicle: saline with Tween-80",100 % of control
same,T/C,[10],91 % of control
same,T/C,[11],94 % of control
same,T/C,"endpoint: median survival time, dose: 6.25 mg/kg/injection, schedule: Q01DX009 (ip), vehicle: saline with Tween-80",100 % of control
same,T/C,"endpoint: median survival time, dose: 12.5 mg/kg/injection, schedule: Q01DX009 (ip), vehicle: saline with Tween-80",100 % of control
same,T/C,"endpoint: median survival time, dose: 25.0 mg/kg/injection, schedule: Q01DX009 (ip), vehicle: saline with Tween-80",96 % of control
same,T/C,"endpoint: median survival time, dose: 50.0 mg/kg/injection, schedule: Q01DX009 (ip), vehicle: saline with Tween-80",96 % of control
same,T/C,"endpoint: median survival time, dose: 100.0 mg/kg/injection, schedule: Q01DX009 (ip), vehicle: saline with Tween-80",101 % of control
C=CCC1OC1CCCC1CO1 (stereo not drawn),T/C,"endpoint: mean survival time, dose: 100.0 mg/kg/injection, schedule: Q01DX001 (ip), vehicle: saline sonified",94 % of control
same,T/C,[12],97 % of control
same,T/C,"endpoint: mean survival time, dose: 200.0 mg/kg/injection, schedule: Q01DX001 (ip), vehicle: saline sonified",90 % of control
same,T/C,"endpoint: mean survival time, dose: 200.0 mg/kg/injection, schedule: Q04DX002 (ip), vehicle: saline with Tween-80",101 % of control
same,T/C,"endpoint: mean survival time, dose: 400.0 mg/kg/injection, schedule: Q01DX001 (ip), vehicle: saline sonified",97 % of control
same,T/C,"endpoint: mean survival time, dose: 400.0 mg/kg/injection, schedule: Q04DX002 (ip), vehicle: saline with Tween-80",97 % of control
CC[N+](CC)(CC)Cc1ccccc1,T/C,"endpoint: mean survival time, dose: 10.0 mg/kg/injection, schedule: Q04DX003 (ip), vehicle: saline with Tween-80",105 % of control
same,T/C,"endpoint: mean survival time, dose: 20.0 mg/kg/injection, schedule: Q04DX003 (ip), vehicle: saline with Tween-80",94 % of control
same,T/C,"endpoint: mean survival time, dose: 40.0 mg/kg/injection, schedule: Q04DX003 (ip), vehicle: saline with Tween-80",98 % of control
CCOc1ccc(NC(=O)OCC(C)C)cc1,T/C,"endpoint: mean survival time, dose: 100.0 mg/kg/injection, schedule: Q01DX001 (ip), vehicle: saline with Tween-80",97 % of control
same,T/C,"endpoint: mean survival time, dose: 200.0 mg/kg/injection, schedule: Q01DX001 (ip), vehicle: saline with Tween-80",101 % of control
same,T/C,"endpoint: mean survival time, dose: 400.0 mg/kg/injection, schedule: Q01DX001 (ip), vehicle: saline with Tween-80",89 % of control
CCOC(=O)c1cc([N+](=O)[O-])c(Sc2ncnc3nc[nH]c23)c([N+](=O)[O-])c1,T/C,"endpoint: mean survival time, dose: 0.63 mg/kg/injection, schedule: Q01DX005 (ip), vehicle: other",104 % of control
same,T/C,"endpoint: mean survival time, dose: 1.25 mg/kg/injection, schedule: Q01DX005 (ip), vehicle: other",109 % of control
same,T/C,"endpoint: mean survival time, dose: 2.5 mg/kg/injection, schedule: Q01DX005 (ip), vehicle: other",101 % of control
same,T/C,"endpoint: mean survival time, dose: 5.0 mg/kg/injection, schedule: Q01DX005 (ip), vehicle: other",114 % of control
same,T/C,"endpoint: mean survival time, dose: 10.0 mg/kg/injection, schedule: Q01DX005 (ip), vehicle: other",114 % of control
same,T/C,"endpoint: mean survival time, dose: 20.0 mg/kg/injection, schedule: Q01DX005 (ip), vehicle: other",113 % of control
same,T/C,"endpoint: mean survival time, dose: 40.0 mg/kg/injection, schedule: Q01DX005 (ip), vehicle: other",120 % of control
same,T/C,"endpoint: mean survival time, dose: 80.0 mg/kg/injection, schedule: Q01DX005 (ip), vehicle: other",117 % of control
CC(=O)O[C@H]1CC[C@@]2(C)C(=CC[C@H]3[C@@H]4CC[C@H](O)[C@@]4(C)CC[C@@H]32)C1,T/C,"endpoint: mean survival time, dose: 100.0 mg/kg/injection, schedule: Q01DX009 (ip), vehicle: Klucel (hydroxypropylcellulose) (HPC)",97 % of control
same,T/C,"endpoint: mean survival time, dose: 200.0 mg/kg/injection, schedule: Q01DX009 (ip), vehicle: Klucel (hydroxypropylcellulose) (HPC)",90 % of control
same,T/C,"endpoint: mean survival time, dose: 400.0 mg/kg/injection, schedule: Q01DX009 (ip), vehicle: Klucel (hydroxypropylcellulose) (HPC)",95 % of control
Cc1ccc(S(=O)(=O)C[n+]2ccccc2N)cc1,T/C,"endpoint: mean survival time, dose: 25.0 mg/kg/injection, schedule: Q04DX002 (ip), vehicle: saline with Tween-80",102 % of control
same,T/C,"endpoint: mean survival time, dose: 50.0 mg/kg/injection, schedule: Q04DX002 (ip), vehicle: saline with Tween-80",95 % of control
same,T/C,[12],93 % of control and 95 % of control
